Assay results published in US8119624B2, “Fused phenyl amido heterocyclic compounds” (Pfizer Inc., priority 2006, dated 2012).
pEC50: −log10 of the molar value.

Target: T1, Full-length glucokinase (beta cell isoform) (Homo sapiens, UniProt P35557)
T1 construct: Full-length glucokinase (beta cell isoform) was His-tagged at N-terminus; His tag (N); made in house
T1 sequence (P35557 1-465): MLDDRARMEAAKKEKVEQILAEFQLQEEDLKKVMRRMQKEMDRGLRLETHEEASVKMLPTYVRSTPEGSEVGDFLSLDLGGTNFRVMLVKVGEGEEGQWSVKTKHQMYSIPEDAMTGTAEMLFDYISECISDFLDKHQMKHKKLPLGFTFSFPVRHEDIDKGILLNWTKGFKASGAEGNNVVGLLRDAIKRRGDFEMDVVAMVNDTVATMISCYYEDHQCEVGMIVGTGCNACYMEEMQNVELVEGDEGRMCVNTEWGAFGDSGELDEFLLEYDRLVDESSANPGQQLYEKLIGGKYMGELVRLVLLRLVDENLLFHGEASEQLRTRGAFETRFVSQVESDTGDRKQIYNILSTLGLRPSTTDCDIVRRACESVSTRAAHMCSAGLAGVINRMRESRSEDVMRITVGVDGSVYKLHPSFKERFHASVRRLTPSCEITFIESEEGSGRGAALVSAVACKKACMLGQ
Experiment: Glucokinase biochemical assay (PK/LDH-coupled, NADH depletion at 340 nm): % activation, EC50, % max activation
Conditions: 5 mM glucose; for activation at 10 µM: 10 uM compound, % Activation=(Va/Vo−1)×100, read-out: % Activation at 10 uM; for pEC50: GK activation, read-out: EC50; for Emax: fitted maximum activation, read-out: % Max Activation
Summary of the method: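 Activation expressed as (Va/Vo−1)×100, where initial rates with and without compound come from NADH depletion at 340 nm over 200–900 s. Enzyme is His-tagged human beta-cell GK, full length, run at room temperature in HEPES buffer with 1 mM ATP and 5 mM glucose. DMSO 1%.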

Compound	activation at 10 µM [%]	pEC50	Emax [%]
COc1ccnc(NC(=O)c2cc(Oc3ccc(S(=O)(=O)N4CCC4)cc3)c3cc(C)oc3c2)c1 [Example 295, 4-(4-(Azetidin-1-ylsulfonyl)phenoxy)-N-(4-methoxypyridin-2-yl)-2-methyl-benzofuran-6-carboxamide]	46.9	6.44	50
Cc1cc2c(Oc3ccc(S(=O)(=O)N4CCC4)cc3)cc(C(=O)Nc3ccc(Cl)cn3)cc2o1 [Example 300, 4-(4-(Azetidin-1-ylsulfonyl)phenoxy)-N-(5-chloropyridin-2-yl)-2-methyl-benzofuran-6-carboxamide]	53.4	6.15	56
CCOc1ccc(NC(=O)c2cc(Oc3ccc(S(=O)(=O)N4CCC4)cc3)c3cc(C)oc3c2)nc1 [Example 302, 4-(4-(Azetidin-1-ylsulfonyl)phenoxy)-N-(5-ethoxypyridin-2-yl)-2-methyl-benzofuran-6-carboxamide]	123	5.89	110
COc1cnc(NC(=O)c2cc(Oc3ccc(S(=O)(=O)N4CCC4)cc3)c3cc(C)oc3c2)cn1 [Example 303, 4-(4-(Azetidin-1-ylsulfonyl)phenoxy)-N-(5-methoxypyrazin-2-yl)-2-methyl-benzofuran-6-carboxamide]	195	6.19	179
Cc1ccc(NC(=O)c2cc(Oc3ccc(S(=O)(=O)N(C)C)c(F)c3)c3cc(C)oc3c2)nc1 [Example 304, 4-{4-[(Dimethylamino)sulfonyl]-3-fluorophenoxy}-2-methyl-N-(5-methyl-pyridin-2-yl)-1-benzofuran-6-carboxamide]	94.6	6.62	89
Cc1cc2c(Oc3ccc(S(=O)(=O)N(C)C)c(F)c3)cc(C(=O)Nc3cnn(C)n3)cc2o1 [Example 306, 4-{4-[(Dimethylamino)sulfonyl]-3-fluorophenoxy}-2-methyl-N-(2-methyl-2H-1,2,3-triazol-4-yl)-1-benzofuran-6-carboxamide]	185	6.48	186
COc1cnc(NC(=O)c2cc(Oc3ccc(S(=O)(=O)N(C)C)c(F)c3)c3cc(C)oc3c2)cn1 [Example 307, 4-{4-[(Dimethylamino)sulfonyl]-3-fluorophenoxy}-N-(5-methoxypyrazin-2-yl)-2-methyl-1-benzofuran-6-carboxamide]	153	6.40	156
COCc1cc2c(Oc3ccc(S(C)(=O)=O)cc3)cc(C(=O)Nc3ccn(C)n3)cc2o1 [Example 310, 2-(Methoxymethyl)-N-(1-methyl-1H-pyrazol-3-yl)-4-[4-(methylsulfonyl)-phenoxy]-1-benzofuran-6-carboxamide]	118	6.14	137
COCc1cc2c(Oc3ccc(S(C)(=O)=O)cc3)cc(C(=O)Nc3cnc(N(C)C)cn3)cc2o1 [Example 311, N-[5-(Dimethylamino)pyrazin-2-yl]-2-(methoxymethyl)-4-[4-(methylsulfonyl)-phenoxy]-1-benzofuran-6-carboxamide]	106	6.42	114
COCc1cc2c(Oc3ccc(S(C)(=O)=O)cc3)cc(C(=O)Nc3cnc(OC)cn3)cc2o1 [Example 312, 2-(Methoxymethyl)-N-(5-methoxypyrazin-2-yl)-4-[4-(methylsulfonyl)phenoxy]-1-benzofuran-6-carboxamide]	112	6.31	121
COCc1cc2c(Oc3ccc(S(C)(=O)=O)cc3)cc(C(=O)Nc3cnn(C)n3)cc2o1 [Example 313, 2-(Methoxymethyl)-4-[4-(methylsulfonyl)phenoxy]-N-(2-methyl-2H-1,2,3-triazol-4-yl)-1-benzofuran-6-carboxamide]	131	6.04	155
COCc1cc2c(Oc3ccc(S(C)(=O)=O)cc3)cc(C(=O)Nc3cc(OC)ccn3)cc2o1 [Example 314, 2-(Methoxymethyl)-N-(4-methoxypyridin-2-yl)-4-[4-(methylsulfonyl)phenoxy]-1-benzofuran-6-carboxamide]	47.3	6.48	46

These reach a higher pEC50. Values come first.

activation at 10 µM [%]	pEC50	Emax [%]	Compound
72.3	6.64	81	COCc1cc2c(Oc3ccc(S(C)(=O)=O)cc3)cc(C(=O)Nc3ccc(C)cn3)cc2o1 [Example 309, 2-(Methoxymethyl)-N-(5-methylpyridin-2-yl)-4-[4-(methylsulfonyl)-phenoxy]-1-benzofuran-6-carboxamide]
113	6.68	132	Cc1cc2c(Oc3ccc(S(=O)(=O)N4CCC4)cc3)cc(C(=O)Nc3cnn(C)n3)cc2o1 [Example 298, 4-(4-(Azetidin-1-ylsulfonyl)phenoxy)-2-methyl-N-(2-methyl-2H-1,2,3-triazol-4-yl)benzofuran-6-carboxamide]
122	6.70	132	Cc1cc2c(Oc3ccc(S(=O)(=O)N4CCC4)cc3)cc(C(=O)Nc3ccn(C)n3)cc2o1 [Example 294, 4-(4-(Azetidin-1-ylsulfonyl)phenoxy)-2-methyl-N-(1-methyl-1H-pyrazol-3-yl)benzofuran-6-carboxamide]
70	6.70	77	Cc1cc2c(Oc3ccc(S(=O)(=O)N4CCC4)cc3)cc(C(=O)Nc3ccccn3)cc2o1 [Example 296, 4-(4-(Azetidin-1-ylsulfonyl)phenoxy)-2-methyl-N-(pyridin-2-yl)benzofuran-6-carboxamide]
106	6.74	107	Cc1cc2c(Oc3ccc(S(=O)(=O)N4CCC4)cc3)cc(C(=O)Nc3cnc(N(C)C)cn3)cc2o1 [Example 299, 4-(4-(Azetidin-1-ylsulfonyl)phenoxy)-N-(5-(dimethylamino)-pyrazin-2-yl)-2-methylbenzofuran-6-carboxamide]
168	6.82	137	Cc1cc2c(Oc3ccc(S(=O)(=O)N4CCC4)cc3)cc(C(=O)Nc3ccc(CO)cn3)cc2o1 [Example 301, 4-(4-(Azetidin-1-ylsulfonyl)phenoxy)-N-(5-(hydroxymethyl)-pyridin-2-yl)-2-methylbenzofuran-6-carboxamide]
166	6.85	168	Cc1cc2c(Oc3ccc(S(=O)(=O)N(C)C)c(F)c3)cc(C(=O)Nc3ccn(C)n3)cc2o1 [Example 305, 4-{4-[(Dimethylamino)sulfonyl]-3-fluorophenoxy}-2-methyl-N-(1-methyl-1H-pyrazol-3-yl)-1-benzofuran-6-carboxamide]
61.9	6.89	68	Cc1ccc(NC(=O)c2cc(Oc3ccc(S(=O)(=O)N4CCC4)cc3)c3cc(C)oc3c2)nc1 [Example 297, 4-(4-(Azetidin-1-ylsulfonyl)phenoxy)-2-methyl-N-(5-methylpyridin-2-yl)-benzofuran-6-carboxamide]
141	6.96	131	Cc1cc2c(Oc3ccc(S(=O)(=O)N(C)C)c(F)c3)cc(C(=O)Nc3cnc(N(C)C)cn3)cc2o1 [Example 308, N-[5-(Dimethylamino)pyrazin-2-yl]-4-{4-[(dimethylamino)-sulfonyl]-3-fluorophenoxy}-2-methyl-1-benzofuran-6-carboxamide]
